Laboratory results from patent publication US20230019236A1, “PROTEIN TYROSINE PHOSPHATASE INHIBITORS AND METHODS OF USE THEREOF” (Calico Life Sciences LLC, priority 2019, published 2023).

These molecules were tested against T1, His tagged full-length PTP1B protein (Homo sapiens, UniProt P18031) (assay: Mobility Shift Assay (MSA) used to determine potency of PTP1B inhibitors). Details: Table 2.
T1 construct: made in house
T1 sequence (P18031 with tags, fused parts or gaps): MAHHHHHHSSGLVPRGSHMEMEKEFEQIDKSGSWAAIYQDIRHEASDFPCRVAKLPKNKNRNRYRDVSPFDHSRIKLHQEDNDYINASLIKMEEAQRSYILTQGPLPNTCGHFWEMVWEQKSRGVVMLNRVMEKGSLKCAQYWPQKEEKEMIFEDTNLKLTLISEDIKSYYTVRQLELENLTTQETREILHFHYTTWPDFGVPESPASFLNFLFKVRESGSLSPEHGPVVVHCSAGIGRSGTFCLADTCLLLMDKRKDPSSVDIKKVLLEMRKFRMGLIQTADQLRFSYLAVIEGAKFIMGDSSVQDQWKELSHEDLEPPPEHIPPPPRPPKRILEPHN
Format: biochemical
Protocol: The enzymatic assay used to determine activity is a mobility shift assay using a LabChip EZ Reader by Caliper Life Sciences. The enzymatic reaction was carried out in assay buffer (50 mM HEPES pH 7.5, 1 mM EGTA, 10 mM EDTA, 0.01% Tween® 20, and 2 mM DTT). […] The enzyme (at 0.5 nM) was incubated with compound for 10 minutes at room temperature. […] The % inhibition was then used to calculate the IC50 values.

Structure (SMILES) | IC50
N#CCCCCOc1ccc2cc(O)c(N3CC(=O)NS3(=O)=O)c(F)c2c1 [Compound 111, 5-{[8-fluoro-6-hydroxy-7-(1,1,4-trioxo-1λ^6,2,5-thiadiazolidin-2-yl)naphthalen-2-yl]oxy}pentanenitrile] | 1 to 10 nM
O=C1CN(c2c(O)cc3ccc(C4=CCN(C(=O)C5CC5)C4)cc3c2F)S(=O)(=O)N1 [Compound 237, 5-{7-[1-(cyclopropanecarbonyl)-2,5-dihydro-1H-pyrrol-3-yl]-1-fluoro-3-hydroxynaphthalen-2-yl}-1λ^6,2,5-thiadiazolidine-1,1,3-trione] | < 1 nM
O=C1CN(c2c(O)cc3ccc(C4=CCN(S(=O)(=O)c5ccccc5)C4)cc3c2F)S(=O)(=O)N1 [Compound 315, 5-{7-[1-(benzenesulfonyl)-2,5-dihydro-1H-pyrrol-3-yl]-1-fluoro-3-hydroxynaphthalen-2-yl}-1λ^6,2,5-thiadiazolidine-1,1,3-trione] | < 1 nM
COCCNCCOc1ccc2cc(O)c(N3CC(=O)NS3(=O)=O)c(F)c2c1 [Compound 138, 5-(1-fluoro-3-hydroxy-7-{2-[(2-methoxyethyl)amino]ethoxy}naphthalen-2-yl)-1λ^6,2,5-thiadiazolidine-1,1,3-trione] | 10 to 100 nM
O=C1CN(c2c(O)cc3ccc(NCCN4CCC4)cc3c2F)S(=O)(=O)N1 [Compound 177, 5-(7-{[2-(azetidin-1-yl)ethyl]amino}-1-fluoro-3-hydroxynaphthalen-2-yl)-1λ^6,2,5-thiadiazolidine-1,1,3-trione] | > 100 nM
CNc1ccc2cc(O)c(N3CC(=O)NS3(=O)=O)c(F)c2c1 [Compound 107, 5-[1-fluoro-3-hydroxy-7-(methylamino)naphthalen-2-yl]-1λ^6,2,5-thiadiazolidine-1,1,3-trione] | > 100 nM
O=C1CN(c2c(O)cc3ccc(OCCOCC4CC4)cc3c2F)S(=O)(=O)N1 [Compound 212, 5-{7-[2-(cyclopropylmethoxy)ethoxy]-1-fluoro-3-hydroxynaphthalen-2-yl}-1λ^6,2,5-thiadiazolidine-1,1,3-trione] | 1 to 10 nM
CP(C)(=O)c1ccc(-c2ccc3cc(O)c(N4CC(=O)NS4(=O)=O)c(F)c3c2)s1 [Compound 141, 5-{7-[5-(dimethylphosphoryl)thiophen-2-yl]-1-fluoro-3-hydroxynaphthalen-2-yl}-1λ^6,2,5-thiadiazolidine-1,1,3-trione] | 1 to 10 nM
Cc1nn(C)cc1S(=O)(=O)N1CC=C(c2ccc3cc(O)c(N4CC(=O)NS4(=O)=O)c(F)c3c2)C1 [Compound 310, 5-{7-[1-(1,3-dimethyl-1H-pyrazole-4-sulfonyl)-2,5-dihydro-1H-pyrrol-3-yl]-1-fluoro-3-hydroxynaphthalen-2-yl}-1λ^6,2,5-thiadiazolidine-1,1,3-trione] | 1 to 10 nM
O=C1CN(c2c(O)cc3ccc(OCC4CCOCC4)cc3c2F)S(=O)(=O)N1 [Compound 273, 5-{1-fluoro-3-hydroxy-7-[(oxan-4-yl)methoxy]naphthalen-2-yl}-1λ^6,2,5-thiadiazolidine-1,1,3-trione] | > 100 nM
CC(C)(C#N)CCOc1ccc2cc(O)c(N3CC(=O)NS3(=O)=O)c(F)c2c1 [Compound 120, 4-{[8-fluoro-6-hydroxy-7-(1,1,4-trioxo-1λ^6,2,5-thiadiazolidin-2-yl)naphthalen-2-yl]oxy}-2,2-dimethylbutanenitrile] | < 1 nM
C[C@@H](O)CCCc1ccc2cc(O)c(N3CC(=O)NS3(=O)=O)c(F)c2c1 [Compound 151, 5-{1-fluoro-3-hydroxy-7-[(4R)-4-hydroxypentyl]naphthalen-2-yl}-1λ^6,2,5-thiadiazolidine-1,1,3-trione] | 1 to 10 nM
COCC1(CCOc2ccc3cc(O)c(N4CC(=O)NS4(=O)=O)c(F)c3c2)CC1 [Compound 160, 5-(1-fluoro-3-hydroxy-7-{2-[1-(methoxymethyl)cyclopropyl]ethoxy}naphthalen-2-yl)-1λ^6,2,5-thiadiazolidine-1,1,3-trione] | 1 to 10 nM
O=C1CN(c2c(O)cc3ccc(OCCO)cc3c2F)S(=O)(=O)N1 [Compound 277, 5-[1-fluoro-3-hydroxy-7-(2-hydroxyethoxy)naphthalen-2-yl]-1λ^6,2,5-thiadiazolidine-1,1,3-trione] | > 100 nM
CC(C)(C)OCCOc1ccc2cc(O)c(N3CC(=O)NS3(=O)=O)c(F)c2c1 [Compound 217, 5-[7-(2-tert-butoxyethoxy)-1-fluoro-3-hydroxynaphthalen-2-yl]-1λ^6,2,5-thiadiazolidine-1,1,3-trione] | 1 to 10 nM
C[C@@H](O)CCOc1ccc2cc(O)c(N3CC(=O)NS3(=O)=O)c(F)c2c1 [Compound 149, 5-{1-fluoro-3-hydroxy-7-[(3R)-3-hydroxybutoxy]naphthalen-2-yl}-1λ^6,2,5-thiadiazolidine-1,1,3-trione] | 1 to 10 nM

Structure (SMILES) | IC50
CCNCCCc1ccc2cc(O)c(N3CC(=O)NS3(=O)=O)c(F)c2c1 [Compound 140, 5-{7-[3-(ethylamino)propyl]-1-fluoro-3-hydroxynaphthalen-2-yl}-1λ^6,2,5-thiadiazolidine-1,1,3-trione] | 10 to 100 nM
Cc1c[nH]c(-c2ccc3cc(O)c(N4CC(=O)NS4(=O)=O)c(F)c3c2)n1 [Compound 225, 5-[1-fluoro-3-hydroxy-7-(4-methyl-1H-imidazol-2-yl)naphthalen-2-yl]-1λ^6,2,5-thiadiazolidine-1,1,3-trione] | 10 to 100 nM
CCOCCOc1ccc2cc(O)c(N3CC(=O)NS3(=O)=O)c(F)c2c1 [Compound 246, 5-[7-(2-ethoxyethoxy)-1-fluoro-3-hydroxynaphthalen-2-yl]-1λ^6,2,5-thiadiazolidine-1,1,3-trione] | > 100 nM
CC(C)CCNc1ccc2cc(O)c(N3CC(=O)NS3(=O)=O)c(F)c2c1 [Compound 200, 5-{1-fluoro-3-hydroxy-7-[(3-methylbutyl)amino]naphthalen-2-yl}-1λ^6,2,5-thiadiazolidine-1,1,3-trione] | < 1 nM
CC(C)CCNc1ccc2c(F)c(O)c(N3CC(=O)NS3(=O)=O)c(F)c2c1 [Compound 148, 5-{1,4-difluoro-3-hydroxy-7-[(3-methylbutyl)amino]naphthalen-2-yl}-1λ^6,2,5-thiadiazolidine-1,1,3-trione] | > 100 nM
O=C1CN(c2c(O)cc3ccc(C4CC4)cc3c2F)S(=O)(=O)N1 [Compound 236, 5-(7-cyclopropyl-1-fluoro-3-hydroxynaphthalen-2-yl)-1λ^6,2,5-thiadiazolidine-1,1,3-trione] | > 100 nM
CC(C)Oc1ccc2cc(O)c(N3CC(=O)NS3(=O)=O)c(F)c2c1 [Compound 279, 5-{1-fluoro-3-hydroxy-7-[(propan-2-yl)oxy]naphthalen-2-yl}-1λ^6,2,5-thiadiazolidine-1,1,3-trione] | > 100 nM
COc1ccc(-c2ccc3cc(O)c(N4CC(=O)NS4(=O)=O)c(F)c3c2)s1 [Compound 227, 5-[1-fluoro-3-hydroxy-7-(5-methoxythiophen-2-yl)naphthalen-2-yl]-1λ^6,2,5-thiadiazolidine-1,1,3-trione] | > 100 nM
COCCOc1ccc2cc(O)c(N3CC(=O)NS3(=O)=O)c(F)c2c1 [Compound 119, 5-[1-fluoro-3-hydroxy-7-(2-methoxyethoxy)naphthalen-2-yl]-1λ^6,2,5-thiadiazolidine-1,1,3-trione] | 1 to 10 nM
C=C(c1ccc2cc(O)c(N3CC(=O)NS3(=O)=O)c(F)c2c1)c1c(C)c(C)c(C)c(C)c1C [Compound 241, 5-{1-fluoro-3-hydroxy-7-[1-(pentamethylphenyl)ethenyl]naphthalen-2-yl}-1λ^6,2,5-thiadiazolidine-1,1,3-trione] | > 100 nM
Nc1ccccc1CS(=O)(=O)N1CC=C(c2ccc3cc(O)c(N4CC(=O)NS4(=O)=O)c(F)c3c2)C1 [Compound 195, 5-(7-{1-[(2-aminophenyl)methanesulfonyl]-2,5-dihydro-1H-pyrrol-3-yl}-1-fluoro-3-hydroxynaphthalen-2-yl)-1λ^6,2,5-thiadiazolidine-1,1,3-trione] | 1 to 10 nM
CCCCS(=O)(=O)N1CC=C(c2ccc3cc(O)c(N4CC(=O)NS4(=O)=O)c(F)c3c2)C1 [Compound 291, 5-{7-[1-(butane-1-sulfonyl)-2,5-dihydro-1H-pyrrol-3-yl]-1-fluoro-3-hydroxynaphthalen-2-yl}-1λ^6,2,5-thiadiazolidine-1,1,3-trione] | < 1 nM
O=C1CN(c2c(O)cc3ccc(C(F)F)cc3c2F)S(=O)(=O)N1 [Compound 167, 5-[7-(difluoromethyl)-1-fluoro-3-hydroxynaphthalen-2-yl]-1λ^6,2,5-thiadiazolidine-1,1,3-trione] | > 100 nM
CNCC(C)(C)CCOc1ccc2cc(O)c(N3CC(=O)NS3(=O)=O)c(F)c2c1 [Compound 163, 5-{7-[3,3-dimethyl-4-(methylamino)butoxy]-1-fluoro-3-hydroxynaphthalen-2-yl}-1λ^6,2,5-thiadiazolidine-1,1,3-trione] | > 100 nM
CC(C)(CN)CCOc1ccc2cc(O)c(N3CC(=O)NS3(=O)=O)c(F)c2c1 [Compound 176, 5-[7-(4-amino-3,3-dimethylbutoxy)-1-fluoro-3-hydroxynaphthalen-2-yl]-1λ^6,2,5-thiadiazolidine-1,1,3-trione] | 1 to 10 nM
N#CCOc1ccc2cc(O)c(N3CC(=O)NS3(=O)=O)c(F)c2c1 [Compound 203, {[8-fluoro-6-hydroxy-7-(1,1,4-trioxo-1λ^6,2,5-thiadiazolidin-2-yl)naphthalen-2-yl]oxy}acetonitrile] | > 100 nM
